Laboratory results as given in patent US11053196B2, “Substituted indoline derivatives as dengue viral replication inhibitors” (JANSSEN PHARMACEUTICALS, INC., priority 2017, dated 2021).

How the values were obtained:
DENV-2 16681 strain = assay: DENV-2 antiviral assay (eGFP-labeled virus in Vero cells); type: cell-based, Dengue virus; conditions: DENV-2 16681 eGFP, MOI 0.5, 3 days
Description: The antiviral activity of all the compounds of the invention was tested against the DENV-2 16681 strain which was labeled with enhanced green fluorescent protein (eGPF). The culture medium consists of minimal essential medium supplemented with 2% of heat-inactivated fetal calf serum, 0.04% gentamycin (50 mg/mL) and 2 mM of L-glutamine. Vero cells, obtained from ECACC, were suspended in culture medium and 25 μL was added to 384-well plates (2500 cells/well), which already contain the antiviral compounds. Typically, these plates contain a 5-fold serial dilution of 9 dilution steps of the test compound at 200 times the final concentration in 100% DMSO (200 nL). […] Finally, each plate contains wells which are assigned as virus controls (containing cells and virus in the absence of compound), cell controls (containing cells in the absence of virus and compound) and medium controls (containing medium in the absence of cells, virus and compounds). To the wells assigned as medium control, 25 μL of culture medium was added instead of Vero cells. Once the cells are added to the plates, the plates were incubated for 30 minutes at room temperature to allow the cells to distribute evenly within the wells. Next, the plates were incubated in a fully humidified incubator (37° C., 5% CO2) until the next day. Then, DENV-2 strain 16681, labeled with eGFP, was added at a multiplicity of infection (MOI) of 0.5.
Therefore, 15 μL of virus suspension was added to all the wells containing test compound and to the wells assigned as virus control. In parallel, 15 μL of culture medium was added to the medium and cell controls. Next, the plates were incubated for 3 days in a fully humidified incubator (37° C., 5% CO2). At the day of the read out, the eGFP fluorescence was measured using an automated fluorescence microscope at 488 nm (blue laser). Using an in-house LIMS system, inhibition dose response curves for each compound were calculated and the half maximal effective concentration (EC50) was determined. Therefore, the percent inhibition (I) for every test concentration is calculated using the following formula: I=100*(ST−SCC)/(SVC−SCC); ST, SCC and SVC are the amount of eGFP signal in the test compound, cell control and virus control wells, respectively. The EC50 represents the concentration of a compound at which the virus replication is inhibited with 50%, as measured by a 50% reduction of the eGFP fluorescent intensity compared to the virus control. The EC50 is calculated using linear interpolation (Table 1).

[1] = Toxicity in DENV-2 antiviral assay plates (ATPlite cell viability); conditions: African green monkey, CC50, Vero cells, same plates as DENV-2 antiviral assay
DENV-1 strain TC974#666 = assay: Tetravalent RT-qPCR assay, serotype 1; type: cell-based; conditions: Dengue virus, DENV1, 72 h; RT-qPCR serotype 1 TC974#666, Vero cells, day 3
Description: (§1) The antiviral activity of the compounds of the invention was tested against DENV-1 strain TC974#666 (NCPV), DENV-2 strain 16681, DENV-3 strain H87 (NCPV) and DENV-4 strain H241 (NCPV) in a RT-qPCR assay. Therefore, Vero cells were infected with either DENV-1, or -2, or -3, or -4 in the presence or absence of test compounds. At day 3 post-infection, the cells were lysed and cell lysates were used to prepare cDNA of both a viral target (the 3′UTR of DENV; Table 2) and a cellular reference gene (1-actin, Table 2). Subsequently, a duplex real time PCR was performed on a Lightcycler480 instrument. The generated Cp value is inversely proportional to the amount of RNA expression of these targets. Inhibition of DENV replication by a test compound results in a shift of Cp's for the 3′UTR gene. On the other hand, if a test compound is toxic to the cells, a similar effect on 1-actin expression will be observed. The comparative ΔΔCp method is used to calculate EC50, which is based on the relative gene expression of the target gene (3′UTR) normalized with the cellular housekeeping gene (1-actin). In addition, CC50 values are determined based on the C, values acquired for the housekeeping gene β-actin.
(§2) The culture medium consisted of minimal essential medium supplemented with 2% of heat-inactivated fetal calf serum, 0.04% gentamycin (50 mg/mL) and 2 mM of L-glutamine. Vero cells, obtained from ECACC, were suspended in culture medium and 75 μL/well was added in 96-well plates (10000 cells/well), which already contain the antiviral compounds. […] In addition, each plate contains wells which are assigned as virus controls (containing cells and virus in the absence of compound) and cell controls (containing cells in the absence of virus and compound). Once the cells were added in the plates, the plates were incubated in a fully humidified incubator (37° C., 5% CO2) until the next day. Dengue viruses serotype-1, 2, 3 and 4 were diluted in order to obtain a Cp of ˜22-24 in the assay. Therefore, 25 μL of virus suspension was added to all the wells containing test compound and to the wells assigned as virus control. In parallel, 25 μL of culture medium was added to the cell controls. Next, the plates were incubated for 3 days in a fully humidified incubator (37° C., 5% CO2). After 3 days, the supernatant was removed from the wells and the cells were washed twice with ice-cold PBS (−100 μL). The cell pellets within the 96-well plates were stored at −80° C. for at least 1 day. Next, RNA was extracted using the Cells-to-CT™ lysis kit, according to the manufacturer's guideline (Life Technologies). The cell lysates can be stored at −80° C. or immediately used in the reverse transcription step.
(§3) In preparation of the reverse transcription step, mix A (table 3A) was prepared and 7.57 μL/well was dispensed in a 96-well plate. After addition of 5 μL of the cell lysates, a five minute denaturation step at 75° C. was performed (table 3B). Afterwards, 7.43 μL of mix B was added (table 3C) and the reverse transcription step was initiated (table 3D) to generate cDNA.
(§4) Finally, a RT-qPCR mix was prepared, mix C (table 4A), and 22.02 μL/well was dispensed in 96-well LightCycler qPCR plates to which 3 μL of cDNA was added and the qPCR was performed according to the conditions in table 4B on a LightCycler 480.
(§5) Using the LightCycler software and an in-house LIMS system, dose response curves for each compound were calculated and the half maximal effective concentration (EC50) and the half maximal cytotoxic concentration (CC50) were determined (Tables 5-8).

DENV-2 strain 16681 = assay: Tetravalent RT-qPCR assay, serotype 2; type: cell-based; conditions: Dengue virus, DENV2, 72 h; RT-qPCR serotype 2 16681, Vero cells, day 3
Description: as §1, §2, §3, §4, §5

DENV-3 strain H87 = assay: Tetravalent RT-qPCR assay, serotype 3; type: cell-based; conditions: Dengue virus, DENV3, 72 h; RT-qPCR serotype 3 H87, Vero cells, day 3
Description: as §1, §2, §3, §4, §5

DENV-4 strain H241 = assay: Tetravalent RT-qPCR assay, serotype 4; type: cell-based; conditions: Dengue virus, DENV4, 72 h; RT-qPCR serotype 4 H241, Vero cells, day 3
Description: as §1, §2, §3, §4, §5

Vero cells = conditions: African green monkey
in vitro [2] = type: cell-based; conditions: African green monkey
Description: as §1, with “The comparative ΔΔCp method is used to calculate EC50, which is based on the relative gene expression of the target gene (3′UTR) normalized with the cellular housekeeping gene (1-actin).” left out, “β-actin. […]” for “β-actin.”
as §5

in vitro [3] = conditions: African green monkey

| Structure (SMILES) | EC50 (DENV-2 16681 strain) [nM] | CC50 [1] [nM] | EC50 (DENV-1 strain TC974#666) [nM] | EC50 (DENV-2 strain 16681) [nM] | EC50 (DENV-3 strain H87) [nM] | EC50 (DENV-4 strain H241) [nM] | CC50 (Vero cells) [nM] | CC50 at 3 days (in vitro [2]) [nM] | CC50 (in vitro [3]) [nM] |
| --- | --- | --- | --- | --- | --- | --- | --- | --- | --- |
| COc1cc(NC(C(=O)N2CCc3cc(F)c(C(F)(F)F)cc32)c2ccc(Cl)cc2)cc(OCCCC(=O)O)c1 (single isomer, unassigned) [Compound 3A, 4-(3-((1-(4-chlorophenyl)-2-(5-fluoro-6-(trifluoromethyl)indolin-1-yl)-2-oxoethyl)amino)-5-methoxyphenoxy)butanoic acid] | 36 | 12000 |  |  |  |  |  |  |  |
| COc1cc(NC(C(=O)N2CCc3c(C)cc(OC(F)(F)F)cc32)c2ccc(Cl)cc2)cc(OCCCC(=O)O)c1 (single isomer, unassigned) [Compound 4A, 4-(3-((1-(4-chlorophenyl)-2-(4-methyl-6-(trifluoromethoxy)indolin-1-yl)-2-oxoethyl)amino)-5-methoxyphenoxy)butanoic acid] | 11 | 13000 |  |  |  |  |  |  |  |
| COc1cc(NC(C(=O)N2CCc3ccc(S(F)(F)(F)(F)F)cc32)c2ccc(Cl)cc2)cc(OCCCC(=O)O)c1 (single isomer, unassigned) [Compound 1B, 4-(3-((1-(4-chlorophenyl)-2-oxo-2-(6-(pentafluoro-λ^6-sulfanyl)indolin-1-yl)ethyl)amino)-5-methoxyphenoxy)butanoic acid] | 0.11 |  | 0.096 | 0.18 | 1.9 | 9.6 | 13000 |  |  |
| COc1cc(NC(C(=O)N2CCc3cc(F)c(OC(F)(F)F)cc32)c2ccc(Cl)cc2)cc(OCCCC(=O)O)c1 (single isomer, unassigned) [Compound 5B, 4-(3-((1-(4-chlorophenyl)-2-(5-fluoro-6-(trifluoromethoxy)indolin-1-yl)-2-oxoethyl)amino)-5-methoxyphenoxy)butanoic acid] | 0.12 |  | 0.33 | 0.29 | 2.6 | 20 | 12000 |  |  |
| COc1cc(NC(C(=O)N2CCc3cc(F)c(C(F)(F)F)cc32)c2ccc(Cl)cc2)cc(OCCCC(=O)O)c1 (single isomer, unassigned) [Compound 3B, 4-(3-((1-(4-chlorophenyl)-2-(5-fluoro-6-(trifluoromethyl)indolin-1-yl)-2-oxoethyl)amino)-5-methoxyphenoxy)butanoic acid] | 0.12 |  | 0.1 | 0.096 | 1.5 | 14 |  | > 2500 | 13000 |
| COc1cc(NC(C(=O)N2CCc3c(C)cc(OC(F)(F)F)cc32)c2ccc(Cl)cc2)cc(OCCCC(=O)O)c1 (single isomer, unassigned) [Compound 4B, 4-(3-((1-(4-chlorophenyl)-2-(4-methyl-6-(trifluoromethoxy)indolin-1-yl)-2-oxoethyl)amino)-5-methoxyphenoxy)butanoic acid] | 0.057 |  | 0.11 | 0.067 | 0.92 | 12 |  |  | 13000 |
| [2H]C(Nc1cc(OC)cc(OCCCC(=O)O)c1)(C(=O)N1CCc2ccc(OC(F)(F)F)cc21)c1ccc(Cl)cc1 (single isomer, unassigned) [Compound 7A-D, 4-(3-((1-(4-chlorophenyl)-1-deuterio-2-oxo-2-(6-(trifluoromethoxy)indolin-1-yl)ethyl)amino)-5-methoxyphenoxy)butanoic acid] | 0.1 |  | 0.24 | 0.16 | 2.4 | 13 |  |  | 12000 |
| COc1cc(NC(C(=O)N2CCc3sc(C(F)(F)F)cc32)c2ccc(Cl)cc2)cc(OCCCC(=O)O)c1 (single isomer, unassigned) [Compound 10B, 4-(3-((1-(4-chlorophenyl)-2-oxo-2-(2-(trifluoromethyl)-5,6-dihydro-4H-thieno[3,2-b]pyrrol-4-yl)ethyl)amino)-5-methoxyphenoxy)butanoic acid] | 37 |  |  |  |  |  | 12000 |  |  |
| COc1cc(NC(C(=O)N2CCc3c(C)cc(C(F)(F)F)cc32)c2ccc(Cl)cc2)cc(OCCCC(=O)O)c1 (single isomer, unassigned) [Compound 2B, 4-(3-((1-(4-chlorophenyl)-2-(4-methyl-6-(trifluoromethyl)indolin-1-yl)-2-oxoethyl)amino)-5-methoxyphenoxy)butanoic acid] | 0.078 |  | 0.091 | 0.061 | 0.85 | 10 | 14000 |  |  |
| [2H]C(Nc1cc(OC)cc(OCCCC(=O)O)c1)(C(=O)N1CCc2ccc(OC(F)(F)F)cc21)c1ccc(Cl)cc1 (single isomer, unassigned) [Compound 7B-D, 4-(3-((1-(4-chlorophenyl)-1-deuterio-2-oxo-2-(6-(trifluoromethoxy)indolin-1-yl)ethyl)amino)-5-methoxyphenoxy)butanoic acid] | 16 |  |  |  |  |  | 9600 |  |  |
| COc1cc(NC(C(=O)N2CCc3sc(C(F)(F)F)cc32)c2ccc(Cl)cc2)cc(OCCCC(=O)O)c1 (single isomer, unassigned) [Compound 10A, 4-(3-((1-(4-chlorophenyl)-2-oxo-2-(2-(trifluoromethyl)-5,6-dihydro-4H-thieno[3,2-b]pyrrol-4-yl)ethyl)amino)-5-methoxyphenoxy)butanoic acid] | 0.3 |  | 0.22 | 0.11 | 4.2 | 30 |  |  | 14000 |
